# Experiments:
# [1] = system: hepatocytes; settings: 30 μM; Lange 1994; cited from earlier work
# [2] = system: fibroblast monolayers; assay: Influx/uptake of ^3 H-FC (free cholesterol) from labeled LDL (or plasma, HDL) into normal fibroblast monolayers; type: cell-based, human
# [3] = system: human hepatoblastoma (HepG2) cells; settings: Lange 1994; cited from earlier work
# [4] = system: fibroblast ACAT; settings: 30 μM; Goldstein et al. 1978; cited from earlier work
structure (smiles),measurement,setting,value
CC(=O)[C@H]1CC[C@H]2[C@@H]3CCC4=CC(=O)CC[C@]4(C)[C@H]3CC[C@]12C [Progesterone],inhibition of cholesterol transport in hepatocytes,[1],inhibit
same,"LDL-FC influx (discussion, words)",[2],without effect
same,"inhibition of LDL-FC pathway (summary, words)",[2],not inhibited
same,FC Influx,"[2]; LDL-FC 60.2 μg ml^-1, 60 min, 37° C., 30 min preequilibration with inhibitor at: Na-azide 1 mM, NH4-vanadate 1 mM, NEM 2 mM, KNO3 50 mM, progesterone 30 μM, forskolin 30 μM, IBMX 100 μM, chloroquine 20 μM",1.28 ± 0.06 µg
same,effect on LDL FC uptake,[2]; Table 3 conditions,no effect
same,"FC Influx, % (PBS only = 100.0)","[2]; same concentrations and conditions as Table 3 FC influx, 60 min",97.3%
same,transfer of FC from plasma membrane to cell interior,[3],promoted the transfer of FC
same,inhibition of fibroblast ACAT activity,[4],maximally inhibit

# — US5922554A, “Inhibition of cellular uptake of cholesterol” (The Regents of the University of California, priority 1996, dated 1999)
